# Like-named read-outs stand apart in the source and are kept apart here.
# How the values were obtained:
# [1] = test system: lymphocytic choriomeningitis virus (LCMV)
# [2] = in vitro and in vivo; cited from earlier work
# [3] = rats, inhalation; cited from earlier work
# [4] = mouse, in vivo; cited from earlier work
compound,measurement,setting,value
"OO [H2O2, hydrogen peroxide]",H2O2 concentration after which no infectious virus could be detected,vaccinia virus,≤ 0.03%
same,viral titer after treatment,vaccinia virus,reduced to below the limit of detection
same,viral titer after treatment,yellow fever virus (YFV),reduced to below the limit of detection
same,H2O2 concentration at which infectivity is eliminated,[1],< 0.1%
same,viral titer after treatment,[1],reduced to below the limit of detection
same,viral titer after treatment,West Nile virus (WNV),reduced to below the limit of detection
same,viral titer after treatment,monkeypox virus (MPV),reduced to below the limit of detection
C=O [formaldehyde],genotoxicity,[2],genotoxic in vitro and in vivo
same,carcinogenicity,[3],induces squamous-cell carcinoma of the nasal cavity
O=C1CCO1 [betapropiolactone],carcinogenicity,[4],"produce squamous cell carcinomas, lymphomas and hepatomas"

# — patent US10143740B2, “Inactivating pathogens with oxidizing agents for vaccine production” (priority 2005, dated 2018)
